Experimental findings from ChEMBL document CHEMBL1140338, “Range and sensitivity as descriptors of molecular property spaces in dynamic QSAR analyses” (J Med Chem, 2005) are described below.

Experiment [1] is described as follows: Binding affinity for alpha 1a adrenoceptor.
Experiment [2] can be described thus: Binding affinity for alpha 1b adrenoceptor.
A short description of experiment [3]: Binding affinity for alpha 1d adrenoceptor.

As to `CC1=C(C(N)=O)[C@H](c2ccc([N+](=O)[O-])cc2)C(C(=O)NCCCCN2CCC(c3ccccc3)(c3ccccc3)CC2)=C(C)N1`, the pK was 8.72 in experiment [1], 6.48 in experiment [2] and 6.4 in experiment [3].

As to `COc1cccc2c1CC[C@H]1CN(CCn3c(=O)[nH]c4c(sc5cccnc54)c3=O)C[C@@H]21`, the pK in experiment [1] amounted to 9.66; in experiment [2] it was 8.16; in experiment [3], 9.01.

As to `CCCC(=O)N1CCCN(c2nc(N)c3cc(OC)c(OC)cc3n2)CC1`, the pK in experiment [1] was 9.3; in experiment [2], 9; in experiment [3], 9.

For `COC(=O)[C@H]1[C@H]2C[C@H]3c4[nH]c5ccccc5c4CCN3C[C@@H]2CC[C@@H]1O`, the figures for the pK in experiment [1], in experiment [2] and in experiment [3] were 6.85, 6.29 and 6.6, respectively.

Consider `COc1cc2nc(N3CCN(C(=O)c4ccco4)[C@H]4CCCC[C@H]43)nc(N)c2cc1OC`, for which the results for the pK in experiment [1], in experiment [2] and in experiment [3] were 7.92, 9.89 and 8.49, respectively.

For the compound `COc1cc2nc(N3CCN(C(=O)C4CCCO4)CC3)nc(N)c2cc1OC` (stereo unspecified), the pK in experiment [1] came out at 8.2; in experiment [3], 8.6.

With `O=C(CCCN1CCC2(CC1)C(=O)NCN2c1ccccc1)c1ccc(F)cc1`, the pK in experiment [1] amounted to 8.1; in experiment [2] it was 9.3; in experiment [3], 7.89.

For the compound `COC(=O)C1=C(C)NC(C)=C(C(=O)OCCCN2CCC(c3ccccc3)(c3ccccc3)CC2)[C@H]1c1cccc([N+](=O)[O-])c1`, the pK in experiment [1] came out at 9.82; in experiment [2] it was 7.26; in experiment [3], 7.

In the case of `COc1cc2nc(N3CCN(C(=O)C4COc5ccccc5O4)CC3)nc(N)c2cc1OC` (stereo unspecified), the figures for the pK in experiment [2] and in experiment [3] were 9 and 8.4, respectively.

On to `COc1ccccc1N1CCN(CCCNc2c(C)c(=O)n(C)c(=O)n2C)CC1`, for which the pK in experiment [1] turned out to be 9.2; in experiment [2], 7.4; in experiment [3], 8.

For `Cc1ccc(N(CC2=NCCN2)c2cccc(O)c2)cc1`, the values for the pK in experiment [1], in experiment [2] and in experiment [3] were 8.8, 8.1 and 8.1, respectively.

Consider `COc1cc2nc(N3CCN(C(=O)COc4c(OC)cccc4C(C)C)CC3)nc(N)c2cc1OC`, for which the pK in experiment [1] is 8.72; in experiment [2], 9.52; in experiment [3], 8.59.

For `COc1ccccc1N1CCN(CCCCN2C(=O)c3ccccc3C2=O)CC1`, the pK in experiment [1] is 8.7; in experiment [2], 7.82; in experiment [3], 9.1.

For the compound `COc1cc2c(cc1O)C1Cc3ccc(OC)c(O)c3CN1CC2` (stereo unspecified), the results for the pK in experiment [1], in experiment [2] and in experiment [3] were 6.21, 6.44 and 7.6, respectively.

Regarding `COc1cccc(OC)c1OCCNCC1CSc2ccccc2O1` (stereo unspecified), the pK in experiment [1] was found to be 9.7; in experiment [2], 8.4; in experiment [3], 9.4.

`Cc1c[nH]c(=O)n(CCCN2CCN(c3ccc(F)cc3OCC(F)(F)F)CC2)c1=O`: the results for the pK in experiment [1], in experiment [2] and in experiment [3] were 9, 7.1 and 7, respectively.

In the case of `C[C@H](Cc1cc2c(c(C(N)=O)c1)N(CCCO)CC2)NCCOc1ccccc1OCC(F)(F)F`, the pK stood at 10.4 in experiment [1], 7.7 in experiment [2] and 8.7 in experiment [3].

Turning to `COc1cc2nc(N(C)CCCNC(=O)C3CCCO3)nc(N)c2cc1OC` (stereo unspecified), the pK in experiment [1] was 8; in experiment [2] it was 8; in experiment [3], 8.5.

As for `O=C(NC1CCN(CCc2c[nH]c3ccccc23)CC1)c1ccccc1`, the pK in experiment [1] turned out to be 8.4; in experiment [2], 7.4; in experiment [3], 6.8.

Take `CCC1=C(C(N)=O)[C@H](c2ccc([N+](=O)[O-])cc2)C(C(=O)NCCCN2CCC(c3ccccc3)(c3ccccc3)CC2)=C(COCCN)N1`: the pK in experiment [1] was determined as 9.19; in experiment [2], 6.49; in experiment [3], 6.4.

Take `COc1cccc(OC)c1OCCNCC1COc2ccccc2O1` (stereo unspecified): the results for the pK in experiment [1] and in experiment [3] were 9.8 and 9.6, respectively.

Consider `COc1ccccc1N1CCN(CCCNC(=O)c2cccc3c(=O)c(C)c(-c4ccccc4)oc23)CC1`, for which the pK in experiment [1] was determined as 9; in experiment [3] it was 8.6.

As to `C=Cc1sc2ccc(Cl)c3c2c1CN(C)CC3`, the pK was determined as 7.36 in experiment [1], 7.2 in experiment [2] and 8.28 in experiment [3].

Regarding `COc1ccccc1N1CCN(CCN(C(=O)C2CCCCC2)c2ccccn2)CC1`, the pK amounted to 7.24 in experiment [1], 6.73 in experiment [2] and 7.2 in experiment [3].

Consider `C[C@H](CN1CCN(c2cc(F)c(F)cc2F)CC1)N1C(=O)CC2(CCCC2)CC1=O`, for which the pK in experiment [1] was 6.53; in experiment [2], 6.72; in experiment [3] it was 8.8.

For `CC(C)(Cc1c[nH]c2ccc(Cl)cc12)NCCOc1ccccc1OCC1CC1`, the pK in experiment [1] was found to be 9.22; in experiment [2], 7.8; in experiment [3], 7.8.

For the compound `COC(=O)C1=C(C)NC(C)=C(C(=O)NCCCN2CCC(c3ccccc3)(c3ccccc3)CC2)C1c1ccc([N+](=O)[O-])cc1` (stereo unspecified), the pK in experiment [1] worked out at 9.64; in experiment [2], 7.89; in experiment [3], 7.18.

In the case of `COc1c(C)c(C)c(O)c(C)c1CN(C)CCOc1cc(C)c(O)cc1C(C)C`, the pK is 9.4 in experiment [1], 8.92 in experiment [2] and 8.92 in experiment [3].

Regarding `COc1ccccc1N1CCN(CCN2C(=O)CC3(CCCC3)CC2=O)CC1`, the pK in experiment [1] was found to be 6.6; in experiment [2], 6.2; in experiment [3] it was 8.2.

Regarding `COc1cc2c(cc1OC)CN(c1cc(N)c3cc(OC)c(OC)cc3n1)CC2`, the pK in experiment [1] was 10.4; in experiment [2] it was 10.1; in experiment [3], 10.4.
